Several values for one entry are separate records, joined by “and”; a condition that tells them apart may be missing. Identical values can stand only once. Entries after “also recorded” stand apart in the source; their conditions may differ. Where a SMILES comes first, the peptide text is derived from it. The star is where a group is joined. Palmitoyl = CCCCCCCCCCCCCCCC(=O)*
Experiments:
HeLa cells [1] = test: Confocal laser scanning microscopy and degradation study with PA library and HeLa cells; assay type: cell-based
In short: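 HeLa cells (20,000/well) got Proteostat-stained PAs (2 µg peptide per 20.000 cells) with Hoechst nuclear stain, 30 min at 37°C, PBS-washed, then held 3 d at 37°C unwashed. Confocal imaging at d0 and d3 counted aggregates >10 µm^2 in 1008 × 1008 µm, three technical replicates. Degradation taken as d3/d0 aggregate number.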

[2] = Zeta-potential measurement (dynamic light scattering); assay type: physicochemical; conditions: for Zeta Potential / mV: 1 mg/mL, PBS
In short: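 Peptide at 1 mg mL-1 stock was diluted tenfold in 1 mM KCl and measured by dynamic light scattering in triplicate. The derived count rate served as a light-scattering and turbidity indicator of microscopic aggregation.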

HeLa cells [3] = test: Confocal laser scanning microscopy and degradation study with PA1-3 and HeLa cells; assay type: cell-based; conditions: for degraded over the course of 3 days in the presence of HeLa cells: 4 µg peptide added to 40,000 cells; for association with cellular membranes: HeLa cells, 30 min
Experimental: 4 µL of the preformed peptide fibrils (1 mg mL^-1) were diluted with 4 µL Proteostat (Enzo Life Science, 1 µL stock in 999 µL PBS) and incubated for 10 min and further diluted with medium to receive a final peptide concentration of 20 µg mL^-1. The nucleus of the HeLa cells was stained with Hoechst 33342 (NucBlue™, Thermo Fisher Scientific). The peptide solution was transferred to the HeLa cells and incubated for 30 min at 37°C before washing three times with PBS. […] For the evaluation of aggregate degradation, the samples were further incubated at 37°C for 3 d and analyzed without any additional washing step. […] The number of aggregates were determined by accumulating the number of aggregates larger than 10 µm^2 in an area of 581.25 × 581.25 µm, repeated in three technical triplicates.

[4] = Thioflavin T (ThT) fluorescence assay; assay type: physicochemical; parameters: key to ThT: + = ThT active; - = no ThT fluorescence observed; conditions: for ThT: ThT fluorescence, 1 mg/mL, PBS
In short: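 ThT fluorescence of peptide fibrils judged against a PBS/10% DMSO control; fibrils scored ThT-active when intensity was at least twice that control.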

[5] = Fluorescence microscopy of ThT-stained fibrils (µm-sized aggregates); assay type: physicochemical
In short: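 Fibrils (1 mg mL^-1) mixed 1:9 with 50 µM ThT, giving 0.1 mg mL^-1 stained fibrils on glass. Imaged under 10x air objective with excitation 480/40 nm and emission 527/30 nm. Fibrils called distinct when no visible structures appeared in fluorescence or brightfield.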

[6] = Zeta-potential measurement (dynamic light scattering); assay type: physicochemical
[7] = ATR-FT-IR determination of β-sheet content; assay type: physicochemical; conditions: peak integration of parallel β-sheet at 1630 cm-1, 2nd derivative of ATR-IR spectra
In short: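 Lyophilized fibril samples measured by diamond ATR-FT-IR, 2 cm^-1 resolution, 64 scans averaged. β-sheet content taken from the second-derivative spectrum as the 1630 cm-1 peak integral relative to the 1650-1700 cm-1 integral.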

CD4+ T cells [8] = test: γ-retroviral transduction assay (GALV-RV, GFP+ cells); assay type: cell-based, Human
Experimental: (§1) γ-Retroviral transduction Assay with Jurkat and CD4+ T cells: The effect of peptide fibrils on retroviral transduction of Jurkat cells was analyzed 3 days post transduction by determining the percentage of GFP + cells by flow cytometry. The assay was conducted according prior art procedures.
Human CD4+ T cells were isolated from a Buffy coat using RosetteSep™ Human CD4+ Enrichment Cocktail ([…] Technologies) according to manufacturer's protocol. Isolated T cells were activated using Dynabeads™ Human T-Activator CD3/CD28 (GibcoTM) according to manufacturer's protocol in presence of 10 ng mL^-1 IL-2 (Miltenyi Biotec) for three days. After 3 days the magnetic Dynabeads were removed using a magnet and T cells were cultured in presence of 9 ng mL^-1 IL-7 (Miltenyi Biotec) and 10 ng mL^-1 IL-15 (Miltenyi Biotec). After 1 day 5×10^5 T cells were transduced with GALV-γ-RV in absence and presence of PA1, PA2, EF-C (0.26, 1.3 and 6.5 µM) and Vectofusin®-1 (10 µg mL^-1; Miltenyi Biotec), or RetroNectin (20 µg mL^-1; Takara Bio). […] After 3 days GFP+ T cells were analyzed by flow cytometry. Viability was determined using LIVE/DEAD™ Fixable Aqua Dead Cell Stain Kit (ThermoFisher Scientific) according to manufacturer's protocol.

CD4+ T cells [9] = conditions: 3 days; 1 µg peptide added to 250,000 cells
Experimental: Confocal laser scanning microscopy and degradation study with PA1-3 and CD4+ T cells: The degradation of the peptide assemblies on CD4+ T cells was determined by analyzing fluorescence microscopy images. To this end, 4 µL of the preassembled peptide fibrils EF-C, PA1 and PA2 (1 mg mL^-1, 1 d in PBS) were mixed with 4 µL of Proteostat (Enzo Life Science, 1 µL stock in 99 µL PBS) and incubated for 15 min. 2 µL of the stained fibrils were added to 198 µL preactivated and nucleus stained (Hoechst 33342) CD4+ T cells (200 µL, 0.25×10^6 resulting in a final 5 µg mL^-1concentration of the peptide. After incubation for 30 min at 37°C the cells were washed with 3x with PBS and incubated in medium (supplemented RPMI containing IL-15 and 7). Microscopy was conducted on a Zeiss LSM 710 confocal microscope with 20x and 63x objective and laser excitation wavelengths of 405 nm (Hoechst) and 561 nm (Proteostat). The measurements were performed after 30 min and 3 d of incubation at 37°C without any washing step in between. […]
The evaluation of aggregate size and number was conducted by analyzing Proteostat-stained aggregates via the 3D objects counter function of ImageJ 1.53f51 for 6 individual measurements (area 581.25 µm × 581.25 µm) of three individually repeated experiments. […] The degradation of the peptide assemblies on CD4+ T cells was determined by analyzing fluorescence microscopy images. […]

Jurkat cells = test: γ-retroviral transduction assay (GALV-RV, GFP+ cells); assay type: cell-based
Experimental: as §1

[10] = TEM of peptide assemblies (fibril formation / assembly); assay type: physicochemical; parameters: key to Fibril Formation: "1" means fibril formation observed; "0" means no fibrils observed; conditions: for Fibril Formation: via TEM
In short: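 Peptides predissolved in DMSO at 10 mg/mL (stock), diluted in PBS to 650 µM or 1 mg/mL final and incubated 1 d at rt (20–25 °C) to form fibrils. Other concentrations obtained by diluting preformed fibrils; assemblies imaged by TEM.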
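For Infectivity enhancing N fold at 1.3 µM in this document: TZM-bl reporter cells exposed to HIV-1 with peptide fibrils, infection read out as β-galactosidase luminescence, compared with virus alone.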
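For enhancement of HIV-1 infection / transduction (in words) in this document: TZM-bl reporter cells exposed to HIV-1 with peptide fibrils, infection read out as β-galactosidase luminescence, compared with virus alone.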

Experimental for HIV-1: HIV-1 Infection Assay with TZM-bl cells: The effect of peptide fibrils on HIV-1 infection was studied via a luminescence assay for β-galactosidase, which was reported by TZM-bl cells upon infection. The HIV-1 infection assay was conducted in three technical replicates and repeated in three independent experiments unless stated otherwise.

Row | SMILES | zeta-potential (in words) [2] | Zeta Potential / mV [2] | degraded over the course of 3 days in the presence of HeLa cells (HeLa cells [3]) | association with cellular membranes (HeLa cells [3]) | ThT [4] | formation of µm-sized aggregates in aqueous medium / PBS (in words) [5] | β-sheet content / % [7] | transduction enhancement (in words) (CD4+ T cells [8]) | transduction enhancement (in words) (Jurkat cells) | also measured
1 | CCCCCCCCCCCCCCCC(=O)N[C@H](C(=O)N[C@H](C(=O)N[C@H](C(=O)N[C@@H](C)C(=O)N[C@@H](C)C(=O)N[C@@H](C)C(=O)N[C@@H](CCCCN)C(=O)N[C@@H](CCCCN)C(=O)N[C@@H](CCCCN)C(N)=O)C(C)C)C(C)C)C(C)C [PA1] (Palmitoyl-VVVAAAKKK-NH2) | positive zeta-potential | +22.2 ± 0.7 mV | 94% | association with cellular membranes | + | formation of µm-sized aggregates; also recorded: microscopic clusters of fibrils were formed | 57% | activity in the range of commercially available gold-standard enhancers RetroNectin and Vectofusin-1 | strong transduction enhancement similar to EF-C | Degradability / % (rel. to initial particles > 10 µm^2) (HeLa cells [1]; HeLa cells, 3 d relative to 30 min): 94%; aggregate number decreases / degraded in presence of HeLa cells within 3 days (HeLa cells [1]; d3 relative to d0): 87% and 94%; Count Rate / kcps ([2]; derived count rate of scattered light during zeta-potential measurements): 3138.4 kcps; N-fold ThT-fluorescence ([4]; relative to PBS control): 278.7; Zeta-Potential / mV [6]: 22.2 mV; Infectivity enhancing N fold at 1.3 µM (HIV-1; relative to virus only): 10±3 N fold; degradation of aggregates by CD4+ T cells (in words) (CD4+ T cells [9]): almost all small aggregates of PA1 (SEQ ID NO. 4) are degraded by CD4+ T cells; Assembly without hydrophob residue ([10]; corresponding peptide without hydrophobic moiety): No; Assembly ([10]; peptide amphiphile): Yes; Fibril Formation ([10]; hydrophobic moiety exchange): 1; Fibril Formation ([10]; linkage chemistry exchange): 1
2 | CCCCCCCCCCCCCCCC(=O)N[C@@H](Cc1ccccc1)C(=O)N[C@@H](CCC(N)=O)C(=O)N[C@@H](Cc1ccccc1)C(=O)N[C@@H](CCCCN)C(=O)N[C@@H](Cc1ccccc1)C(=O)N[C@@H](CCCCN)C(=O)N[C@@H](CS)C(N)=O [PA2, C16-FQFKFKC-NH2] (Palmitoyl-FQFKFKC-NH2) | positive zeta-potential | +19.2 ± 3.4 mV | 53% | association with cellular membranes | + | formation of µm-sized aggregates; also recorded: microscopic clusters of fibrils were formed | 59% | activity in the range of commercially available gold-standard enhancers RetroNectin and Vectofusin-1 | strong transduction enhancement similar to EF-C | 
3 | CCCCCCCCCCCCCCCC(=O)N[C@H](C(=O)N[C@H](C(=O)N[C@H](C(=O)N[C@@H](C)C(=O)N[C@@H](C)C(=O)N[C@@H](C)C(=O)N[C@@H](CCC(=O)O)C(=O)N[C@@H](CCC(=O)O)C(=O)N[C@@H](CCC(=O)O)C(N)=O)C(C)C)C(C)C)C(C)C [PA3] (Palmitoyl-VVVAAAEEE-NH2) | negative zeta-potential | -29.8 ± 2.7 mV |  | did not associate with cells | + | does not form µm-sized aggregates in PBS; also recorded: did not bundle or adopt µm-sized aggregates in PBS | 61% |  |  | enhancement of HIV-1 infection / transduction (in words) (HIV-1; 6.5 µM, 1.3 µM, 0.26 µM): no transduction enhancement; TEM morphology (in words) ([10]; 1 mg/mL in PBS): distinct fibrils

Reference: patent publication EP4458977A1, “SELF-ASSEMBLING PEPTIDE AMPHIPHILES AS RETROVIRAL TRANSDUCTION ENHANCERS” (Max-Planck-Gesellschaft zur Förderung der Wissenschaften …, priority 2023, dated 2024)
